Data from US11497731B2, “β-lactamase inhibitor” (NATIONAL UNIVERSITY CORPORATION TOKAI NATIONAL HIGHER …, priority 2018, dated 2022).
Where two headings read alike, the source gives them in different places.

How the values were obtained:
[1] = Reverse mutation test (Ames test); type: cell-based; conditions: entrusted to UBE Scientific Analysis Laboratory, Inc.
Description: Compound A was used as a test substance.

IMP-1 = IMP-1 (Serratia marcescens, UniProt P52699); experiment: Inhibition constant (Ki) measurement test, IMP-1; type: biochemical; conditions: imipenem substrate, enzyme 10 nM, 30° C., Lineweaver-Burk; read-out: Inhibition constant Ki IMP-1
Chain of IMP-1 (P52699 19-246, looked up, species assumed): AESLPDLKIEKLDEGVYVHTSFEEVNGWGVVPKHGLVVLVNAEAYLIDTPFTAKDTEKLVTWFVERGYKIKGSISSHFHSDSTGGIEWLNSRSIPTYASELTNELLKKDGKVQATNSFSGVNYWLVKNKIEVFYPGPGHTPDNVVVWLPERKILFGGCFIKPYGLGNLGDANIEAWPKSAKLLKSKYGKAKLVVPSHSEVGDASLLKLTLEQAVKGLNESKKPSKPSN
Procedure: (§1) The inhibition constant (Ki) measurement test was performed in the following manner. The inhibition constant (Ki) was measured using various metallo-β-lactamases (final concentration: 10 nM). The imipenem decomposition activity (Δabs/min) at each point under the conditions of absorbance: 298 nm and temperature: 30° C. was measured by varying the concentration of imipenem as a substrate and the concentrations of test substances (compounds A to E) as inhibitors. Each measured value was fitted to the Lineweaver-Burk plot equation to calculate Ki.
(§2) The test was performed in the same manner as in Test Example 6, except that X2a, X2b, X2c, X2d, X3a, and X4 were used as test substances (inhibitors).

HeLa cells = experiment: Toxicity evaluation test (MTT assay); type: cell-based; conditions: various concentrations
Procedure: Various concentrations of a test substance (compound A) or staurosporine were added to HeLa cells, and live cells were counted using an MTT assay kit (Promega Cat No. G4000).

[2] = test system: strains of Acinetobacter that produce class B β-lactamases; experiment: Drug susceptibility test 3; type: cell-based; conditions: addition of compound A
[3] = test system: Empty vector (no class B lactamase produced), pBCSK (+)/E. coli DH5a; experiment: Drug susceptibility test (MIC), empty vector strain; type: cell-based; conditions: Escherichia coli
NDM-1 = NDM-1 (Klebsiella pneumoniae, UniProt C7C422); experiment: Inhibition constant (Ki) measurement test, NDM-1; type: biochemical; conditions: imipenem substrate, enzyme 10 nM, 30° C., Lineweaver-Burk; read-out: Inhibition constant Ki NDM-1
Chain of NDM-1 (C7C422 29-270, looked up, species assumed): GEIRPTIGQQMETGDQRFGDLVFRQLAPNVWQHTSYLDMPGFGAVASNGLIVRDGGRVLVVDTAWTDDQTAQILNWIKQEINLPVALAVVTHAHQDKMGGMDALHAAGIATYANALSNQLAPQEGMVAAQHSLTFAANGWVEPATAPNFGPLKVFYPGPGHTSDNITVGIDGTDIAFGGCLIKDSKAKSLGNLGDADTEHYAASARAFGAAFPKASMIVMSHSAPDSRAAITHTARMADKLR
Procedure: as §1, §2

[4] = test system: class B β-lactamase (IMP-1, NDM-1, or VIM-2); experiment: β-Lactamase inhibitory activity measurement test (imipenem decomposition); type: biochemical; conditions: test substance 0, 1, 10, 100 μM; enzyme 10 nM; imipenem 100 μM
Procedure: Each individual class B β-lactamase (IMP-1, NDM-1, or VIM-2; final concentration: 10 nM), imipenem (final concentration: 100 μM), and each individual test substance (compound A or compound Z shown below; final concentrations: 0, 1, 10, 100 μM) were mixed in an HEPES buffer. The imipenem decomposition activity (Dabs/min) under the conditions of absorbance: 298 nm and temperature: 30° C. was measured. The imipenem decomposition activity when no test substance was added was defined as 100%, and the imipenem residual decomposition activity when each test substance was individually added was plotted.

[5] = test system: strain of Escherichia coli in which a plasmid encoding a class B β-lactamase (IMP-1) was introduced; experiment: Mouse abdominal infection model, E. coli IMP-1 strain; type: in vivo, mice
Procedure: After mice were infected with a laboratory strain (a strain of Escherichia coli in which a plasmid encoding a class B β-lactamase (IMP-1) was introduced), a test substance (compound A) was administered; and survival was observed. Specifically, the animal study was performed as follows.
The laboratory strain grown overnight on a Mueller-Hinton agar medium was scraped with a sterile swab, suspended in physiological saline, adjusted to 2-5×10^8 CFU/mL, and mixed with an equal amount of a 10% mucin solution (1-2.5×10^8 CFU/mL) to prepare a bacterial liquid. Mice (Crl:CD1(ICR), male, 4 weeks old (Charles River Laboratories Japan, Inc.)) acclimated for 4 days after arrival were weighed, and then infected by intraperitoneal administration of 250 μL of the prepared bacterial liquid per mouse. An antimicrobial drug (meropenem trihydrate (WAKO 137-15674)) and the test substance were dissolved in physiological saline. A first intraperitoneal administration of the antimicrobial drug (0.2 mg/kg) and/or the test substance (100 mg/kg) was performed 1 hour after infection. A second administration was performed 3 hours after infection, in the same manner as the first administration (up to this point, day 0). […]

[6] = test system: bacteria into which a plasmid encoding VIM-2 was introduced (pBCSK (+)/E. coli DH5a); experiment: Drug susceptibility test (MIC), VIM-2-producing strain; type: cell-based; conditions: Escherichia coli
Procedure: (§3) Plates for drug susceptibility test measurement were prepared by using 96- or 384-well U-bottom plates, a Mueller-Hinton liquid medium, and antimicrobial drugs (ceftazidime (CAZ), imipenem (IPM), meropenem (MPM), doripenem (DPM), and biapenem (BPM)). A 1/2 antimicrobial drug dilution series was made up to well 11 of, for example, a 96-well U-bottom plate so that the leftmost well 1 of row A contained an antimicrobial drug at the maximum concentration, the antimicrobial drug concentration in well 2 to the right of well 1 was 1/2 of the maximum concentration, the antimicrobial drug concentration in well 3 to the right of well 2 was 1/4 of the maximum concentration, and so on. […] An antimicrobial drug dilution series was made in each of rows B and C in the same manner as in row A. Further, 10 μg/mL and 50 μg/mL of a test substance (compound A) were added to row B and row C, respectively (FIG. 1).
(§4) Bacteria into which a plasmid encoding a class B β-lactamase (metallo-β-lactamase (MBL): NDM-1, or VIM-2) was introduced (pBCSK (+)/E. coli DH5a) were used as test bacteria. The test bacteria were adjusted to 10^8 cfu/mL with a Mueller-Hinton medium. Further, the test bacteria were diluted 10-fold with a Mueller-Hinton medium (10^7 cfu/mL). 5 μl of the test bacteria was collected and inoculated into the plates for drug susceptibility test measurement. After overnight culture at 35° C., the growth of the test bacteria was visually checked. The concentration of the antimicrobial drug in a well containing the lowest concentration of the antimicrobial drug among the wells in which no growth of the test bacteria was confirmed was defined as the minimal inhibitory concentration value (FIG. 1).
(§5) The drug susceptibility test was performed in the same manner as in Test Example 1, except that compounds A to C and E to I were used as test substances.
(§6) The test was performed in the same manner as in Test Example 1, except that X2a, X2b, X2c, X2d, X3a, and X4 were used as test substances (inhibitors). The inhibitor concentration was 10 μg/mL.

VIM-2 = VIM-2 (Escherichia coli, UniProt Q5U7L7); experiment: Inhibition constant (Ki) measurement test, VIM-2; type: biochemical; conditions: imipenem substrate, enzyme 10 nM, 30° C., Lineweaver-Burk; read-out: Inhibition constant Ki VIM-2
Procedure: as §1, §2

[7] = test system: bacteria into which a plasmid encoding NDM-1 was introduced (pBCSK (+)/E. coli DH5a); experiment: Drug susceptibility test (MIC), NDM-1-producing strain; type: cell-based; conditions: Escherichia coli
Procedure: as §3, §4, §5, §6

[8] = test system: strains of Enterobacteriaceae bacteria that produce class B β-lactamases; experiment: Drug susceptibility test 2; type: cell-based; conditions: addition of compound A
[9] = test system: β-lactamase-producing bacteria; experiment: Drug susceptibility tests, summary statements over all strains; type: cell-based, E. coli; conditions: addition of the compound
Procedure: as §3, §4

[10] = test system: bacteria (K. pneumoniae) in which a plasmid encoding NDM and VIM was introduced; experiment: Mouse abdominal infection model, K. pneumoniae NDM and VIM strain; type: in vivo, mice; conditions: antimicrobial drug 0.8 mg/kg or 4 mg/kg, test substance 10 mg/kg
Procedure: The laboratory strain grown overnight on a Mueller-Hinton agar medium was scraped with a sterile swab, suspended in physiological saline, adjusted to 2-5×10^8 CFU/mL, and mixed with an equal amount of a 10% mucin solution (1-2.5×10^8 CFU/mL) to prepare a bacterial liquid. Mice (Crl:CD1(ICR), male, 4 weeks old (Charles River Laboratories Japan, Inc.)) acclimated for 4 days after arrival were weighed, and then infected by intraperitoneal administration of 250 μL of the prepared bacterial liquid per mouse. An antimicrobial drug (meropenem trihydrate (WAKO 137-15674)) and the test substance were dissolved in physiological saline. A first intraperitoneal administration of the antimicrobial drug (0.2 mg/kg) and/or the test substance (100 mg/kg) was performed 1 hour after infection. A second administration was performed 3 hours after infection, in the same manner as the first administration (up to this point, day 0).
The animal study was performed in the same manner as in Test Example 12, except that in addition to a strain of Escherichia coli in which a plasmid encoding a class B lactamase (IMP-1) was introduced, bacteria (K. pneumoniae) in which a plasmid encoding NDM and VIM was introduced were used as a laboratory strain, compound I was administered as a test substance, […], and the dosage of the test substance was 10 mg/kg. […]

[11] = read-out: MIC CAZ + compound A (10 μg/ml)
[12] = read-out: MIC CAZ + compound A (50 μg/ml)
[13] = read-out: MIC MPM + compound A (10 μg/ml)
[14] = read-out: MIC MPM + compound A (50 μg/ml)

**Q.** What does the source list for `Cc1oc(C)c(S(N)(=O)=O)c1C(=O)O` [Compound A]?
**A.** Ames test result [1]: negative; Ki (IMP-1): 220 nM; toxicity (live cells, MTT, FIG. 9) (HeLa cells): very low; effect on MICs of the antimicrobial drugs (FIG. 4) [2]: decreases the MICs; MIC [3, 11]: 0.25 µg/mL; MIC [3, 12]: 0.25 µg/mL; MIC [3, 13]: 0.016 µg/mL; MIC [3, 14]: 0.016 µg/mL; Ki (NDM-1): 9820 nM; β-lactamase inhibition (imipenem residual decomposition activity, FIG. 2) [4]: inhibit β-lactamases; survival rate (FIG. 10) ([5]; meropenem 0.2 mg/kg and test substance 100 mg/kg intraperitoneal, 1 and 3 hours after infection): notably improved; MIC [6, 11]: 1 µg/mL; MIC [6, 13]: 0.031 µg/mL; MIC [6, 14]: 0.031 µg/mL; Ki (VIM-2): 2800 nM; MIC [7, 11]: 256 µg/mL; MIC [7, 12]: 64 µg/mL; MIC [7, 13]: 0.25 µg/mL; effect on MICs of the antimicrobial drugs (FIG. 3) [8]: decreases the MICs; effect on MICs of the antimicrobial drugs (statement on Tables 1, 2, 4) [9]: decreases the MICs

**Q.** Which Ki (IMP-1) does the source give for `CCc1c(C(=O)O)c(S(N)(=O)=O)c(CC)n1C` [Compound I] here?
**A.** 2140 nM

**Q.** And the Ki (NDM-1)?
**A.** 840 nM

**Q.** And the “survival rate (FIG. 11)” value ([5]; antimicrobial drug 0.8 mg/kg or 4 mg/kg, test substance 10 mg/kg)?
**A.** notably improved

**Q.** What about the Ki (VIM-2) of the same molecule?
**A.** 20 nM

**Q.** What about the “survival rate (FIG. 12)” value [10] of the same molecule?
**A.** notably improved
